According to ChEMBL document CHEMBL2163289, “The discovery of N-[5-(4-bromophenyl)-6-[2-[(5-bromo-2-pyrimidinyl)oxy]ethoxy]-4-pyrimidinyl]-N'-propylsulfamide (Macitentan), an orally active, potent dual endothelin receptor antagonist” (J Med Chem, 2012):
pIC50: −log10 of the molar value. Active and inactive are the calls of the source. The calls are words filed in the database; no cut-off is given here. Where a SMILES comes first, the peptide text is derived from it. [ ]: non-standard residue; d: D form.

Columns and labels:
Endothelin-1 receptor = biological target: T1, Endothelin-1 receptor (Homo sapiens, UniProt P25101); assay: Displacement of [I125]ET1 from recombinant ETA receptor expressed in CHO cells after 2 hrs by TopCount analysis; assay type: cell-based
T1 sequence (P25101 whole entry): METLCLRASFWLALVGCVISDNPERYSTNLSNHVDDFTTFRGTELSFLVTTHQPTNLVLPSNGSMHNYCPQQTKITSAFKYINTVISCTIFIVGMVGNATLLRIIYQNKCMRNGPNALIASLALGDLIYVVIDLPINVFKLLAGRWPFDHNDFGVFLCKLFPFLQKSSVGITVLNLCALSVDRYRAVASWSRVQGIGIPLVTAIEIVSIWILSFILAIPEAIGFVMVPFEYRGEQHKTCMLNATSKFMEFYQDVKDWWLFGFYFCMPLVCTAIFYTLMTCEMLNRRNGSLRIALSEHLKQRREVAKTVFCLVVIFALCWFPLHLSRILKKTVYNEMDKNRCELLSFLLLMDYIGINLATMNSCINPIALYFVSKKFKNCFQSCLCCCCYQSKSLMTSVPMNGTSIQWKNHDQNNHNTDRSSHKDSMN

Rattus norvegicus [1] = assay: Antihypertensive activity in telemeterized hypertensive Dahl salt-sensitive rat assessed as reduction in mean arterial blood pressure at 3 mg/kg, po measured over 6 hrs; assay type: functional, Artery
Rattus norvegicus [2] = assay: Effect on heart rate in telemeterized hypertensive Dahl salt-sensitive rat at 3 mg/kg, po
Rattus norvegicus [3] = assay: Cmax in Wistar rat assessed as N-[5-(4-Bromophenyl)-6-[2-[(5-bromo-2-pyrimidinyl)oxy]ethoxy]-4-pyrimidinyl]-sulfamide level at 10 mg/kg, po at 6 hrs; assay type: ADME, organism-based; set-up: dose 10 mg/kg, route oral; settings: in vivo

| Compound | pIC50 (Endothelin-1 receptor) | other results |
| --- | --- | --- |
| CCCS(=O)(=O)Nc1nc(-c2ncccn2)nc(OCCOc2ncc(Br)cn2)c1Oc1ccccc1OC | 8.03 |  |
| COc1ccccc1Oc1c(NS(=O)(=O)Cc2ccccc2)nc(-c2ncccn2)nc1OCCOc1ncc(Br)cn1 | 7.14 |  |
| COc1cc(OC)nc(OCCOc2nc(-c3ncccn3)nc(NS(=O)(=O)CCc3ccccc3)c2Oc2ccccc2OC)n1 | 5.32 |  |
| COc1ccccc1Oc1c(NS(C)(=O)=O)nc(-c2ncccn2)nc1OCCOc1ncccn1 | 6.13 |  |
| COc1ccccc1Oc1c(NS(=O)(=O)NCc2ccccc2)nc(-c2ncccn2)nc1OCCOc1ncc(Br)cn1 | 8.72 |  |
| COc1ccccc1Oc1c(NS(=O)(=O)CCc2ccccc2)nc(-c2ncccn2)nc1OCCOc1ncc(C)cn1 | 7.75 |  |
| CC(C)C[C@@H]1NC(=O)[C@@H](C(C)C)NC(=O)[C@@H]2CCCN2C(=O)[C@@H](CC(=O)O)NC(=O)[C@@H](Cc2c[nH]c3ccccc23)NC1=O [BQ-123] (cyclo(L[dW][dD]P[dV])) | 7.69 |  |
| COc1nc(NS(=O)(=O)NCc2ccccc2)c(Oc2ccccc2OC)c(OCCOc2ncc(Br)cn2)n1 | 7.40 |  |
| O=S(=O)(NCc1ccccc1)Nc1ncnc(OCCOc2ncc(Br)cn2)c1-c1ccccc1 | 8.17 |  |
| COc1ccccc1Oc1c(NS(=O)(=O)NCc2ccccc2)ncnc1OCCOc1ncc(Br)cn1 | 8.16 |  |
| COc1ccccc1Oc1c(NS(=O)(=O)c2ccc(C(C)(C)C)cc2)nc(-c2ncccn2)nc1OCCOc1ncc(Br)cn1 | 8.82 |  |
| COc1ccccc1Oc1c(NS(=O)(=O)CCc2ccccc2)nc(-c2ncccn2)nc1OCCOc1ncc(C2CC2)cn1 | 8.11 |  |
| NS(=O)(=O)Nc1ncnc(OCCOc2ncc(Br)cn2)c1-c1ccc(Br)cc1 [APROCITENTAN] | 8.47 |  |
| COc1cnc(OCCOc2nc(-c3ncccn3)nc(NS(=O)(=O)CCc3ccccc3)c2Oc2ccccc2OC)nc1 | 8.49 |  |
| COc1ccccc1Oc1c(NS(=O)(=O)CCc2ccccc2)nc(-c2ncccn2)nc1OCCOc1ncccn1 | 8.10 |  |
| COc1ccccc1Oc1c(NS(=O)(=O)NCc2ccccc2)nc(C2CC2)nc1OCCOc1ncc(Br)cn1 | 7.85 |  |
| COc1ccccc1Oc1c(NS(=O)(=O)c2ccc(C(C)(C)C)cc2)nc(-c2ncccn2)nc1OCCOc1ncccn1 | 8.37 |  |
| COc1ccccc1Oc1c(NS(=O)(=O)N(C)Cc2ccccc2)nc(-c2ncccn2)nc1OCCOc1ncc(Br)cn1 | 8.15 |  |
| CC[C@H](C)[C@H](NC(=O)[C@@H](NC(=O)[C@H](CC(=O)O)NC(=O)[C@H](CCC(N)=O)NC(=O)[C@H](Cc1cnc[nH]1)NC(=O)[C@@H]1CSSC[C@H](N)C(=O)N[C@@H]([C@@H](C)O)C(=O)N[C@H]2CSSC[C@H](NC(=O)[C@H](CCC(=O)O)NC(=O)[C@H](CCC(=O)O)NC(=O)[C@H](CC(=O)O)NC(=O)[C@H]([C@@H](C)O)NC(=O)[C@H](CCSC)NC(=O)[C@H](CC(=O)O)NC(=O)[C@H](CC(N)=O)NC2=O)C(=O)N[C@@H](CC(C)C)C(=O)N[C@@H](CC(N)=O)C(=O)N[C@@H](Cc2ccccc2)C(=O)N1)C(C)C)C(=O)N[C@@H](Cc1c[nH]c2ccccc12)C(=O)O [SARAFOTOXIN 6C] | < 7.00 |  |

| Compound | pIC50 (Endothelin-1 receptor) | other results |
| --- | --- | --- |
| COc1cccc(Oc2c(NS(=O)(=O)NCc3ccccc3)ncnc2OCCOc2ncc(Br)cn2)c1 | 9.00 | Fall in mean arterial blood pressure (Rattus norvegicus [1]): 10 mmHg; Activity (Rattus norvegicus [2]): inactive |
| CNS(=O)(=O)Nc1nc(-c2ncccn2)nc(OCCOc2ncc(Br)cn2)c1Oc1ccccc1OC | 8.10 |  |
| CCNS(=O)(=O)Nc1ncnc(OCCOc2ncc(Br)cn2)c1-c1ccc(Br)cc1 | 9.10 | Fall in mean arterial blood pressure (Rattus norvegicus [1]): 20 mmHg |
| O=S(=O)(NCc1ccccc1)Nc1ncnc(OCCOc2ncc(Br)cn2)c1-c1ccc(Br)cc1 | 8.80 | Fall in mean arterial blood pressure (Rattus norvegicus [1]): 14 mmHg; Activity (Rattus norvegicus [2]): inactive |
| CCc1ccc(-c2c(NS(=O)(=O)NCc3ccccc3)ncnc2OCCOc2ncc(Br)cn2)cc1 | 8.64 |  |
| CCCCS(=O)(=O)Nc1nc(-c2ncccn2)nc(OCCOc2ncc(Br)cn2)c1Oc1ccccc1OC | 8.37 |  |
| COc1ccccc1Oc1c(NS(=O)(=O)CCc2ccccc2)nc(-c2ncccn2)nc1OCCOc1ncc(SC)cn1 | 8.96 |  |
| COc1ccccc1Oc1c(NS(=O)(=O)CCc2ccccc2)nc(-c2ncccn2)nc1OCCO | 7.59 |  |
| CCCNS(=O)(=O)Nc1ncnc(OCCOc2ncc(Br)cn2)c1Oc1cc(OC)ccc1Cl | 9.40 | Fall in mean arterial blood pressure (Rattus norvegicus [1]): 21 mmHg |
| CCCCNS(=O)(=O)Nc1nc(-c2ncccn2)nc(OCCOc2ncc(Br)cn2)c1Oc1ccccc1OC | 8.77 |  |
| COc1ccccc1Oc1c(NS(=O)(=O)CCc2ccccc2)nc(-c2ncccn2)nc1OCCOc1ncc(C(F)(F)F)cn1 | 8.52 |  |
| COc1ccccc1Oc1c(NS(C)(=O)=O)nc(-c2ncccn2)nc1OCCO | 5.34 |  |
| COc1ccccc1Oc1c(NS(=O)(=O)c2ccccc2)nc(-c2ncccn2)nc1OCCOc1ncc(Br)cn1 | 7.98 |  |
| CN(Cc1ccccc1)S(=O)(=O)Nc1ncnc(OCCOc2ncc(Br)cn2)c1-c1ccc(Br)cc1 | 8.37 |  |
| COc1ccc(Cl)c(Oc2c(NS(=O)(=O)NCc3ccccc3)ncnc2OCCOc2ncc(Br)cn2)c1 | 8.85 | Fall in mean arterial blood pressure (Rattus norvegicus [1]): 24 mmHg; Activity (Rattus norvegicus [2]): inactive |
| COCCOc1nc(NS(=O)(=O)NCc2ccccc2)c(Oc2ccccc2OC)c(OCCOc2ncc(Br)cn2)n1 | 8.16 |  |
| CC(C)c1ccc(-c2c(NS(=O)(=O)NCc3ccccc3)ncnc2OCCOc2ncc(Br)cn2)cc1 | 8.44 |  |
| O=S(=O)(NCc1ccccc1)Nc1ncnc(OCCOc2ncc(Br)cn2)c1-c1ccc(Cl)cc1 | 8.85 | Fall in mean arterial blood pressure (Rattus norvegicus [1]): 18 mmHg; Activity (Rattus norvegicus [2]): inactive |
| COc1ccccc1Oc1c(NS(=O)(=O)CCc2ccccc2)nc(-c2ncccn2)nc1OCCOc1ncc(Br)cn1 | 8.66 |  |

| Compound | pIC50 (Endothelin-1 receptor) | other results |
| --- | --- | --- |
| CNS(=O)(=O)Nc1ncnc(OCCOc2ncc(Br)cn2)c1-c1ccc(Br)cc1 | 8.77 | Fall in mean arterial blood pressure (Rattus norvegicus [1]): 21 mmHg |
| COc1ccccc1Oc1c(NS(=O)(=O)N2CCOCC2)nc(-c2ncccn2)nc1OCCOc1ncc(Br)cn1 | 6.73 |  |
| COc1ccccc1Oc1c(NS(=O)(=O)NCc2ccccc2)nc(-c2cnccn2)nc1OCCOc1ncc(Br)cn1 | 8.68 |  |
| CCCS(=O)(=O)Nc1ncnc(OCCOc2ncc(Br)cn2)c1-c1ccc(Br)cc1 | 8.66 | Fall in mean arterial blood pressure (Rattus norvegicus [1]): 25 mmHg |
| CCCNS(=O)(=O)Nc1ncnc(OCCOc2ncc(Br)cn2)c1Oc1cccc(OC)c1 | 8.72 | Fall in mean arterial blood pressure (Rattus norvegicus [1]): 15 mmHg |
| O=S(=O)(Nc1ncnc(OCCOc2ncc(Br)cn2)c1-c1ccc(Br)cc1)N1CCOCC1 | 8.55 |  |
| CCS(=O)(=O)Nc1nc(-c2ncccn2)nc(OCCOc2ncc(Br)cn2)c1Oc1ccccc1OC | 7.85 |  |
| COc1ccccc1Oc1c(NS(C)(=O)=O)nc(-c2ncccn2)nc1OCCOc1ncc(Br)cn1 | 6.95 |  |
| COc1ccccc1Oc1c(NS(=O)(=O)NCc2ccccc2)nc(N2CCOCC2)nc1OCCOc1ncc(Br)cn1 | 8.85 |  |
| Cc1ccc(-c2c(NS(=O)(=O)NCc3ccccc3)ncnc2OCCOc2ncc(Br)cn2)cc1 | 9.15 |  |
| COc1ccccc1Oc1c(NS(=O)(=O)NCc2ccccc2)nc(-c2ccncc2)nc1OCCOc1ncc(Br)cn1 | 8.47 |  |
| CCNS(=O)(=O)Nc1nc(-c2ncccn2)nc(OCCOc2ncc(Br)cn2)c1Oc1ccccc1OC | 8.00 |  |
| CCCNS(=O)(=O)Nc1ncnc(OCCOc2ncc(Br)cn2)c1-c1ccc(Cl)cc1 | 8.92 |  |
| CCCCNS(=O)(=O)Nc1ncnc(OCCOc2ncc(Br)cn2)c1-c1ccc(Br)cc1 | 9.52 | Cmax (Rattus norvegicus [3]): 4100 ng/mL; Fall in mean arterial blood pressure (Rattus norvegicus [1]): 16 mmHg |
| COc1ccccc1Oc1c(NS(=O)(=O)CCCc2ccccc2)nc(-c2ncccn2)nc1OCCOc1ncc(Br)cn1 | 8.17 |  |
| COc1ccccc1Oc1c(NS(=O)(=O)CCc2ccccc2)nc(-c2ncccn2)nc1OCCOc1ncc(Cl)cn1 | 8.55 |  |
| CCCNS(=O)(=O)Nc1nc(-c2ncccn2)nc(OCCOc2ncc(Br)cn2)c1Oc1ccccc1OC | 8.42 |  |
| CCCCS(=O)(=O)Nc1ncnc(OCCOc2ncc(Br)cn2)c1-c1ccc(Br)cc1 | 8.96 | Fall in mean arterial blood pressure (Rattus norvegicus [1]): 22 mmHg |
